Assays:
HBV = assay: Determination of HBV DNA from the supernatants of HepAD38 cells (anti-HBV activity); format: cell-based, hepatitis B virus; conditions: Hepatitis B virus, 144 h; HBV DNA in HepAD38 supernatant at day 6; read-out: Cell Activity (EC50)
Outline: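 EC50 values were obtained by non-linear regression of HBV DNA copy numbers measured by qPCR against pCH-9/3091 plasmid standards. The DNA came from filtered supernatants collected on day 6. Before that, tetracycline-withdrawn HepAD38 cells had been exposed to serial half-log compound dilutions, with tetracycline-treated cells as the non-producing control.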

HBV core protein = HBV core protein (UniProt P03146); format: biochemical; conditions: read-out: Assembly Activity (IC50); BODIPY-FL labelled core protein, assembly started with NaCl, read after 6 min
Outline: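 Compounds tested at 8 concentrations in 0.5-log steps from 100, 31.6 or 10 μM against 1.0–2.0 μM BODIPY-FL-labelled Cys150 core dimers (residues 1–149), 50 mM HEPES pH 7.5. NaCl ([…] final) triggered assembly; quenching read at 6 min, 477/525 nm, with 2.5 M and 0 M NaCl as controls; EC50 by nonlinear fit.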

Sequence of HBV core protein (P03146 whole entry, looked up, the tested form may be a part): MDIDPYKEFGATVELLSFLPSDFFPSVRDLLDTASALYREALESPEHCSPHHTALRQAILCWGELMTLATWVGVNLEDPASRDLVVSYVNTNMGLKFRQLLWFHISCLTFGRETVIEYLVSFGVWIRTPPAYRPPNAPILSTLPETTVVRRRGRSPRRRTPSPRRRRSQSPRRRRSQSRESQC

| SMILES | EC50 (HBV) | IC50 (HBV core protein) |
| --- | --- | --- |
| CC(F)(F)c1cccc2[nH]c(C(=O)N3CCc4nc(NC(=O)C5CCOCC5)sc4C3)cc12 [Example 399, N-{5-[4-(1,1-difluoroethyl)-1H-indole-2-carbonyl]-4H,5H,6H,7H-[1,3]thiazolo[5,4-c]pyridin-2-yl}oxane-4-carboxamide] | 1 to 10 µM | < 5 µM |
| Cc1cccc2[nH]c(C(=O)N3CCc4nc(N(C)C)sc4C3)cc12 [Example 88, N,N-dimethyl-5-(4-methyl-1H-indole-2-carbonyl)-4H,5H,6H,7H-[1,3]thiazolo[5,4-c]pyridin-2-amine] | 1 to 10 µM | < 100 µM |
| COc1cccc2cc(C(=O)N3CCc4nc(N)sc4C3)[nH]c12 [Example 153, 5-(7-methoxy-1H-indole-2-carbonyl)-4H,5H,6H,7H-[1,3]thiazolo[5,4-c]pyridin-2-amine] | < 100 µM | < 100 µM |
| CNC(=O)C1(CNc2nc3c(s2)CN(C(=O)c2cc4ccccc4[nH]2)CC3)CCC1 [Example 428, 1-({[5-(1H-indole-2-carbonyl)-4H,5H,6H,7H-[1,3]thiazolo[5,4-c]pyridin-2-yl]amino}methyl)-N-methylcyclobutane-1-carboxamide] | < 1 µM | < 5 µM |
| N#Cc1cc(F)cc2[nH]c(C(=O)N3CCc4nc(NCC5CCOC5)sc4C3)cc12 (centres unmarked) [Example 103, 5-(4-cyano-6-fluoro-1H-indole-2-carbonyl)-N-[(oxolan-3-yl)methyl]-4H,5H,6H,7H-[1,3]thiazolo[5,4-c]pyridin-2-amine] | < 1 µM | 5 to 10 µM |
| Cc1nc2c(s1)CN(C(=O)c1cc3c(C)cccc3[nH]1)CC2 [Example 184, 4-methyl-2-{2-methyl-4H,5H,6H,7H-[1,3]thiazolo[5,4-c]pyridine-5-carbonyl}-1H-indole] | < 1 µM | < 5 µM |
| O=C(c1cc2c(F)cc(F)cc2[nH]1)N1CCc2nc(NCC3(CO)CC3)sc2C1 [Example 75, [1-({[5-(4,6-difluoro-1H-indole-2-carbonyl)-4H,5H,6H,7H-[1,3]thiazolo[5,4-c]pyridin-2-yl]amino}methyl)cyclopropyl]methanol] | < 1 µM | < 5 µM |
| CS(=O)(=O)CCNc1nc2c(s1)CN(C(=O)c1cc3ccccc3[nH]1)CC2 [Example 89, 5-(1H-indole-2-carbonyl)-N-(2-methanesulfonylethyl)-4H,5H,6H,7H-[1,3]thiazolo[5,4-c]pyridin-2-amine] | < 1 µM | < 5 µM |
| N#Cc1ccc(F)c2[nH]c(C(=O)N3CCc4nc(NCC5CCOC5)sc4C3)cc12 (centres unmarked) [Example 117, 7-fluoro-2-(2-{[(oxolan-3-yl)methyl]amino}-4H,5H,6H,7H-[1,3]thiazolo[5,4-c]pyridine-5-carbonyl)-1H-indole-4-carbonitrile] | 1 to 10 µM | < 100 µM |
| Nc1nc2c(s1)CN(C(=O)c1cc3c(F)cccc3[nH]1)CC2 [Example 195, 5-(4-fluoro-1H-indole-2-carbonyl)-4H,5H,6H,7H-[1,3]thiazolo[5,4-c]pyridin-2-amine] | 1 to 10 µM | 5 to 10 µM |
| Cc1cc(F)cc2[nH]c(C(=O)N3CCc4nc(N)sc4C3)cc12 [Example 169, 5-(6-fluoro-4-methyl-1H-indole-2-carbonyl)-4H,5H,6H,7H-[1,3]thiazolo[5,4-c]pyridin-2-amine] | < 1 µM | < 5 µM |
| O=C(c1cc2c(Cl)cc(F)cc2[nH]1)N1CCc2nc(NCC3(O)CCC3)sc2C1 [Example 313, 1-({[5-(4-chloro-6-fluoro-1H-indole-2-carbonyl)-4H,5H,6H,7H-[1,3]thiazolo[5,4-c]pyridin-2-yl]amino}methyl)cyclobutan-1-ol] | < 1 µM | < 5 µM |
| CCc1cc(F)cc2[nH]c(C(=O)N3CCc4nc(NCC5CCOC5)sc4C3)cc12 (centres unmarked) [Example 255, 5-(4-ethyl-6-fluoro-1H-indole-2-carbonyl)-N-[(oxolan-3-yl)methyl]-4H,5H,6H,7H-[1,3]thiazolo[5,4-c]pyridin-2-amine] | < 1 µM | < 5 µM |
| Cc1cccc2[nH]c(C(=O)N3CCc4nc(NCC5(O)CCC5)sc4C3)cc12 [Example 370, 1-({[5-(4-methyl-1H-indole-2-carbonyl)-4H,5H,6H,7H-[1,3]thiazolo[5,4-c]pyridin-2-yl]amino}methyl)cyclobutan-1-ol] | < 1 µM | < 5 µM |
| O=C(c1cc2c(Cl)cc(F)cc2[nH]1)N1CCc2nc(NCC3(CO)CC3)sc2C1 [Example 60, [1-({[5-(4-chloro-6-fluoro-1H-indole-2-carbonyl)-4H,5H,6H,7H-[1,3]thiazolo[5,4-c]pyridin-2-yl]amino}methyl)cyclopropyl]methanol] | < 1 µM | < 5 µM |
| O=C(c1cc2ccccc2[nH]1)N1CCc2nc(N[C@H]3CCCC[C@@H]3O)sc2C1 [Example 47, (1S,2S)-2-{[5-(1H-indole-2-carbonyl)-4H,5H,6H,7H-[1,3]thiazolo[5,4-c]pyridin-2-yl]amino}cyclohexan-1-ol] | < 1 µM | < 5 µM |

| SMILES | EC50 (HBV) | IC50 (HBV core protein) |
| --- | --- | --- |
| O=C(c1cc2ccccc2[nH]1)N1CCc2nc(NCC3(c4ccccn4)CCC3)sc2C1 [Example 432, 5-(1H-indole-2-carbonyl)-N-{[1-(pyridin-2-yl)cyclobutyl]methyl}-4H,5H,6H,7H-[1,3]thiazolo[5,4-c]pyridin-2-amine] | < 1 µM | < 5 µM |
| Nc1nc2c(s1)CN(C(=O)c1cc3c(Br)ccc(O)c3[nH]1)CC2 [Example 93, 2-{2-amino-4H,5H,6H,7H-[1,3]thiazolo[5,4-c]pyridine-5-carbonyl}-4-bromo-1H-indol-7-ol] | < 100 µM | < 100 µM |
| CC(C)(C)Nc1nc2c(s1)CN(C(=O)c1cc3ccccc3[nH]1)CC2 [Example 71, N-tert-butyl-5-(1H-indole-2-carbonyl)-4H,5H,6H,7H-[1,3]thiazolo[5,4-c]pyridin-2-amine] | < 1 µM | < 5 µM |
| Nc1nc2c(s1)CN(C(=O)c1cc3cc(Cl)c(Cl)cc3[nH]1)CC2 [Example 135, 5-(5,6-dichloro-1H-indole-2-carbonyl)-4H,5H,6H,7H-[1,3]thiazolo[5,4-c]pyridin-2-amine] | 1 to 10 µM | 5 to 10 µM |
| CC(C)(CO)CNc1nc2c(s1)CN(C(=O)c1cc3ccccc3[nH]1)CC2 [Example 221, 3-{[5-(1H-indole-2-carbonyl)-4H,5H,6H,7H-[1,3]thiazolo[5,4-c]pyridin-2-yl]amino}-2,2-dimethylpropan-1-ol] | < 1 µM | < 5 µM |
| O=C(c1cc2c(F)cc(F)cc2[nH]1)N1CCc2nc(NCC3(O)CCC3)sc2C1 [Example 314, 1-({[5-(4,6-difluoro-1H-indole-2-carbonyl)-4H,5H,6H,7H-[1,3]thiazolo[5,4-c]pyridin-2-yl]amino}methyl)cyclobutan-1-ol] | < 1 µM | < 5 µM |
| CN(C)CC(=O)Nc1nc2c(s1)CN(C(=O)c1cc3ccccc3[nH]1)CC2 [Example 62, 2-(dimethylamino)-N-[5-(1H-indole-2-carbonyl)-4H,5H,6H,7H-[1,3]thiazolo[5,4-c]pyridin-2-yl]acetamide] | < 1 µM | 5 to 10 µM |
| Nc1nc2c(s1)CN(C(=O)c1[nH]c3ccccc3c1F)CC2 [Example 220, 5-(3-fluoro-1H-indole-2-carbonyl)-4H,5H,6H,7H-[1,3]thiazolo[5,4-c]pyridin-2-amine] | 1 to 10 µM | < 100 µM |
| O=C(c1cc2ccccc2[nH]1)N1CCc2nc(NCC(O)CO)sc2C1 (centres unmarked) [Example 208, 3-{[5-(1H-indole-2-carbonyl)-4H,5H,6H,7H-[1,3]thiazolo[5,4-c]pyridin-2-yl]amino}propane-1,2-diol] | < 1 µM | < 5 µM |
| N#CC1(C(=O)Nc2nc3c(s2)CN(C(=O)c2cc4ccccc4[nH]2)CC3)CC1 [Example 336, 1-cyano-N-[5-(1H-indole-2-carbonyl)-4H,5H,6H,7H-[1,3]thiazolo[5,4-c]pyridin-2-yl]cyclopropane-1-carboxamide] | < 1 µM | 5 to 10 µM |
| Nc1nc2c(s1)CN(C(=O)c1cc3c(Br)ccc(F)c3[nH]1)CC2 [Example 90, 5-(4-bromo-7-fluoro-1H-indole-2-carbonyl)-4H,5H,6H,7H-[1,3]thiazolo[5,4-c]pyridin-2-amine] | < 1 µM | < 5 µM |
| CC(O)c1cccc2[nH]c(C(=O)N3CCc4nc(NCC5(CO)CC5)sc4C3)cc12 (centres unmarked) [Example 250, 1-{2-[2-({[1-(hydroxymethyl)cyclopropyl]methyl}amino)-4H,5H,6H,7H-[1,3]thiazolo[5,4-c]pyridine-5-carbonyl]-1H-indol-4-yl}ethan-1-ol] | < 1 µM | < 100 µM |
| CC(C)(C)CC(=O)Nc1nc2c(s1)CN(C(=O)c1cc3c(Cl)cccc3[nH]1)CC2 [Example 263, N-[5-(4-chloro-1H-indole-2-carbonyl)-4H,5H,6H,7H-[1,3]thiazolo[5,4-c]pyridin-2-yl]-3,3-dimethylbutanamide] | < 1 µM | 5 to 10 µM |
| O=C(Nc1nc2c(s1)CN(C(=O)c1cc3ccc(Cl)cc3[nH]1)CC2)C1CCOCC1 [Example 318, N-[5-(6-chloro-1H-indole-2-carbonyl)-4H,5H,6H,7H-[1,3]thiazolo[5,4-c]pyridin-2-yl]oxane-4-carboxamide] | < 1 µM | < 5 µM |
| O=C(c1cc2ccccc2[nH]1)N1CCc2nc(NC[C@@H]3C[C@@H]4CC[C@H]3O4)sc2C1 (racemic) [Example 33, (+/−)-trans-5-(1H-indole-2-carbonyl)-N-{[(1R,2S,4S)-7-oxabicyclo[2.2.1]heptan-2-yl]methyl}-4H,5H,6H,7H-[1,3]thiazolo[5,4-c]pyridin-2-amine] | < 1 µM | < 5 µM |

— patent publication US11267825B2 (AICURIS GMBH & CO. KG, priority 2017, dated 2022)
